Assay results from PubChem BioAssay AID248 (DTP/NCI, 2004).
“And” between values parts separate entries of the source, which are not always exact repeats. Identical values can stand only once. Inconclusive results and toxic doses are left out. No stated cut-off is given here; in the data, active means T/C of 150% or more; inactive means T/C below 125%.

Tested on: L1210 leukemia ip in BDF1 mice, survival T/C
Assay: NCI In Vivo Anticancer Drug Screen. Data for tumor model L1210 Leukemia (intraperitoneal) in B6D2F1 (BDF1) mice
Conditions: endpoint: mean survival time, higher = longer survival
Outline: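 Transplanted-tumor mice were given test agent; controls received vehicle only. Survival readings from the two groups were divided (treated over control).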

[1] = dose: 100.0 mg/kg/injection, schedule: Q01DX001 (ip), vehicle: saline
[2] = dose: 200.0 mg/kg/injection, schedule: Q01DX001 (ip), vehicle: saline
[3] = dose: 400.0 mg/kg/injection, schedule: Q01DX001 (ip), vehicle: saline
[4] = dose: 100.0 mg/kg/injection, schedule: Q01DX001 (ip), vehicle: Klucel (hydroxypropylcellulose) (HPC)
[5] = dose: 200.0 mg/kg/injection, schedule: Q01DX001 (ip), vehicle: Klucel (hydroxypropylcellulose) (HPC)
[6] = dose: 50.0 mg/kg/injection, schedule: Q01DX009 (ip), vehicle: Klucel (hydroxypropylcellulose) (HPC)
[7] = dose: 100.0 mg/kg/injection, schedule: Q01DX009 (ip), vehicle: Klucel (hydroxypropylcellulose) (HPC)
[8] = dose: 100.0 mg/kg/injection, schedule: Q04DX003 (ip), vehicle: Klucel (hydroxypropylcellulose) (HPC)
[9] = dose: 200.0 mg/kg/injection, schedule: Q01DX009 (ip), vehicle: Klucel (hydroxypropylcellulose) (HPC)
[10] = dose: 200.0 mg/kg/injection, schedule: Q04DX003 (ip), vehicle: Klucel (hydroxypropylcellulose) (HPC)
[11] = dose: 100.0 mg/kg/injection, schedule: Q04DX003 (ip), vehicle: saline with Tween-80
[12] = dose: 200.0 mg/kg/injection, schedule: Q04DX003 (ip), vehicle: saline with Tween-80
[13] = dose: 400.0 mg/kg/injection, schedule: Q04DX003 (ip), vehicle: saline with Tween-80
[14] = dose: 100.0 mg/kg/injection, schedule: Q01DX009 (ip), vehicle: saline with Tween-80
[15] = dose: 200.0 mg/kg/injection, schedule: Q01DX009 (ip), vehicle: saline with Tween-80
[16] = dose: 400.0 mg/kg/injection, schedule: Q01DX009 (ip), vehicle: Klucel (hydroxypropylcellulose) (HPC)
[17] = dose: 100.0 mg/kg/injection, schedule: Q04DX002 (ip), vehicle: Klucel (hydroxypropylcellulose) (HPC)
[18] = dose: 200.0 mg/kg/injection, schedule: Q04DX002 (ip), vehicle: Klucel (hydroxypropylcellulose) (HPC)
[19] = dose: 400.0 mg/kg/injection, schedule: Q04DX002 (ip), vehicle: Klucel (hydroxypropylcellulose) (HPC)
[20] = dose: 100.0 mg/kg/injection, schedule: Q04DX003 (ip), vehicle: saline
[21] = dose: 200.0 mg/kg/injection, schedule: Q04DX003 (ip), vehicle: saline
[22] = dose: 100.0 mg/kg/injection, schedule: Q04DX002 (ip), vehicle: saline
[23] = dose: 200.0 mg/kg/injection, schedule: Q04DX002 (ip), vehicle: saline
[24] = dose: 50.0 mg/kg/injection, schedule: Q04DX003 (ip), vehicle: saline
[25] = dose: 100.0 mg/kg/injection, schedule: Q01DX001 (ip), vehicle: carboxymethylcellulose (CMC)
[26] = dose: 200.0 mg/kg/injection, schedule: Q01DX001 (ip), vehicle: carboxymethylcellulose (CMC)
[27] = dose: 400.0 mg/kg/injection, schedule: Q01DX001 (ip), vehicle: carboxymethylcellulose (CMC)

Measured: T/C

Nc1ccnn2nnnc12
inactive: [1] 97 % of control | [2] 91 % of control | [3] 97 % of control

CCOC(=O)c1nc2c(OC)nn(O)cc-2c1[N+](=O)[O-]
inactive: dose: 12.5 mg/kg/injection, schedule: Q04DX002 (ip), vehicle: saline with Tween-80 92 % of control | dose: 25.0 mg/kg/injection, schedule: Q04DX002 (ip), vehicle: saline with Tween-80 99 % of control

CC(=O)Oc1c2ccccc2c2c3c(cccc13)C(=O)O2
inactive: [4] 95 % of control | [5] 95 % of control | dose: 400.0 mg/kg/injection, schedule: Q01DX001 (ip), vehicle: Klucel (hydroxypropylcellulose) (HPC) 95 % of control

Cc1cc(=O)[nH]c(N/N=C/C(C)C)n1
inactive: [6] 95 % of control | [7] 95 % of control | [8] 95 % of control | [9] 93 % of control | [10] 89 % of control

N#CCN(CC#N)CCCN(CC#N)CCCN(CC#N)CC#N
inactive: dose: 12.5 mg/kg/injection, schedule: Q01DX001 (ip), vehicle: saline with Tween-80 97 % of control | dose: 25.0 mg/kg/injection, schedule: Q01DX001 (ip), vehicle: saline with Tween-80 108 % of control | dose: 50.0 mg/kg/injection, schedule: Q01DX001 (ip), vehicle: saline with Tween-80 102 % of control

O=C1Nc2c(ccc3ccccc23)/C1=C/c1ccccc1
inactive: [11] 100 % of control | [12] 100 % of control | [13] 97 % of control

CC(C)(C)c1ccc2c(c1)CCCC2
inactive: dose: 50.0 mg/kg/injection, schedule: Q01DX009 (ip), vehicle: saline with Tween-80 93 % of control | [14] 89 % of control | [15] 96 % of control

CCCCCCCC/C=C\CCCCCCCC(=O)OCCCCCCCCCCCCCCCC
inactive: [7] 104 % of control | [9] 96 % of control | [16] 93 % of control

CCCCCCC(C)O[Si](C)c1ccc(-c2ccccc2)cc1 (configuration not stated)
inactive: [14] 100 % of control | [11] 93 % of control | [15] 105 % of control | [12] 94 % of control | dose: 400.0 mg/kg/injection, schedule: Q01DX009 (ip), vehicle: saline with Tween-80 102 % of control | [13] 100 % of control

O=c1scc(-c2ccc(-c3ccccc3)cc2)s1
inactive: [17] 109 % of control | [18] 95 % of control | [19] 109 % of control

CCCCN1CCCC(O)C1 (configuration not stated)
inactive: [20] 97 % of control | [21] 104 % of control

COC1OC2COc3ccccc3OC2C(NC(N)=S)C1S (configuration not stated)
inactive: [11] 102 % of control | [12] 95 % of control | [13] 102 % of control

O=S(=O)(O)c1ccc(CCCCCCCCCl)cc1
inactive: [22] 87 % of control | [23] 93 % of control

O=C(NC(CS)C(=O)O)OCc1ccccc1 (configuration not stated)
inactive: dose: 25.0 mg/kg/injection, schedule: Q04DX003 (ip), vehicle: Klucel (hydroxypropylcellulose) (HPC) 97 % of control | [6] 101 % of control | dose: 50.0 mg/kg/injection, schedule: Q04DX003 (ip), vehicle: Klucel (hydroxypropylcellulose) (HPC) 98 % of control | [7] 101 % of control | [8] 106 % of control and 113 % of control | [9] 98 % of control

CC[As](=O)(O)CCCc1ccccc1
inactive: dose: 12.5 mg/kg/injection, schedule: Q01DX001 (ip), vehicle: Klucel (hydroxypropylcellulose) (HPC) 106 % of control | dose: 25.0 mg/kg/injection, schedule: Q01DX001 (ip), vehicle: Klucel (hydroxypropylcellulose) (HPC) 109 % of control

O=S1(=O)C=C(Cl)C(Cl)C1 (configuration not stated)
inactive: dose: 25.0 mg/kg/injection, schedule: Q01DX009 (ip), vehicle: saline 93 % of control | dose: 50.0 mg/kg/injection, schedule: Q01DX009 (ip), vehicle: saline 86 % of control | [24] 95 % of control | [1] 93 % of control | [20] 92 % of control | [2] 102 % of control

CCOC(=O)C(N)CCSSCCC(N)C(=O)OCC (configuration not stated)
inactive: dose: 177.0 mg/kg/injection, schedule: Q01DX001 (ip), vehicle: saline 92 % of control | dose: 267.0 mg/kg/injection, schedule: Q01DX001 (ip), vehicle: saline 92 % of control | [3] 95 % of control | dose: 600.0 mg/kg/injection, schedule: Q01DX001 (ip), vehicle: saline 104 % of control

N#CCC(N)C(=O)O (configuration not stated)
inactive: dose: 50.0 mg/kg/injection, schedule: Q01DX001 (ip), vehicle: saline 90 % of control | [1] 96 % of control | [2] 96 % of control

COc1ccc(-n2c(O)c(N=Nc3ccccc3OC)c(=O)n(-c3ccccc3)c2=S)cc1
inactive: dose: 50.0 mg/kg/injection, schedule: Q01DX001 (ip), vehicle: Klucel (hydroxypropylcellulose) (HPC) 94 % of control | [4] 92 % of control | [5] 92 % of control

CNS(=O)(=O)CCC1NC(=O)NC1=O (configuration not stated)
inactive: [11] 100 % of control | [12] 105 % of control | [13] 101 % of control

Cc1cc(=O)[nH]c2c(C)cccc12
inactive: [25] 93 % of control | [1] 95 % of control | [7] 104 % of control | [26] 104 % of control | [2] 98 % of control | [9] 108 % of control | [27] 98 % of control | [3] 87 % of control | [16] 105 % of control

Cc1ccc(Cl)cc1NC(=O)Oc1ccc(C(C)(C)C)cc1Br
inactive: [7] 91 % of control | [9] 100 % of control | [16] 108 % of control

O=C(O)c1cc(Br)cc(I)c1Br
inactive: [17] 105 % of control | [18] 117 % of control | [19] 105 % of control

c1coc(CNc2cc(NCc3ccco3)ncn2)c1
inactive: [7] 98 % of control | [9] 95 % of control

CCOC(=O)N(OC(C)=O)P(=O)(N1CC1)N1CC1
inactive: [22] 100 % of control | [23] 100 % of control | dose: 400.0 mg/kg/injection, schedule: Q04DX002 (ip), vehicle: saline 104 % of control

O=C1C2CCN(CC2)C1Cn1cnc2c(Cl)ncnc21 (configuration not stated)
inactive: [4] 95 % of control | [5] 98 % of control

CCOc1ccc(NC(=O)Nc2cccc(Cl)c2)cc1
inactive: [7] 103 % of control | [8] 95 % of control | [10] 103 % of control | [16] 87 % of control | dose: 400.0 mg/kg/injection, schedule: Q04DX003 (ip), vehicle: Klucel (hydroxypropylcellulose) (HPC) 100 % of control

Clc1cc[c]([Sn]([O][Sn]([c]2ccc(Cl)cc2)([c]2ccc(Cl)cc2)[c]2ccc(Cl)cc2)([c]2ccc(Cl)cc2)[c]2ccc(Cl)cc2)cc1
inactive: dose: 25.0 mg/kg/injection, schedule: Q04DX002 (ip), vehicle: Klucel (hydroxypropylcellulose) (HPC) 107 % of control | dose: 50.0 mg/kg/injection, schedule: Q04DX002 (ip), vehicle: Klucel (hydroxypropylcellulose) (HPC) 91 % of control

O=C(c1ccccc1)C1CCC(C(=O)c2ccccc2)C1=O (configuration not stated)
inactive: [25] 98 % of control | [26] 98 % of control | [27] 98 % of control

COc1cccc(/C=N/N2CCN(/N=C/c3cccc(OC)c3OC)CC2)c1OC
inactive: [25] 94 % of control | [26] 98 % of control | [27] 100 % of control

NCCB(O)O
inactive: [20] 95 % of control | [21] 93 % of control | dose: 400.0 mg/kg/injection, schedule: Q04DX003 (ip), vehicle: saline 98 % of control

C1CCN(CCC2CCCCN2)CC1 (configuration not stated)
inactive: dose: 25.0 mg/kg/injection, schedule: Q04DX003 (ip), vehicle: saline 105 % of control | [24] 94 % of control | [20] 101 % of control and 92 % of control

O=NN1CCN(N=O)CC1
inactive: [25] 94 % of control | [11] 101 % of control

O=C(O)c1cc(N2CCCC2)ccn1
inactive: [1] 96 % of control | [2] 101 % of control

FC(F)(F)c1cccc(N2CCNCC2)c1
inactive: dose: 75.0 mg/kg/injection, schedule: Q01DX001 (ip), vehicle: acid diluted with saline 90 % of control

Cc1ccc(NC(=O)CBr)cc1
inactive: dose: 50.0 mg/kg/injection, schedule: Q01DX001 (ip), vehicle: other 96 % of control

NC(=O)c1ccc[n+](CC(=O)NCc2ccccc2)c1
inactive: [20] 96 % of control | [21] 93 % of control
